Test results: PMC8047011, “Enantiomers of 2-methylglutamate and 2-methylglutamine selectively impact mouse brain metabolism and behavior” (Scientific Reports, 2021)

Experiments:
[1] = tested on: C57Bl/6 mice; experiment: Y maze spontaneous alternation; type: in vivo, mouse; details: chronic 10 mg/kg/day IP, week 2 of testing
Description: Y Maze Spontaneous Alternation: The Y maze is made of plastic with 3 arms in a "Y" shape.
The arms are labelled as Arm A, B, and C; Arm A is 20.32 cm (L) x 5 cm (W) 12.7 cm (H), Arm B and C are 15.24 cm (L) x 5 cm (W), and 12.7 cm (H). The test is based on the willingness of rodents to explore a novel environment and designed to measure spontaneous alternations in rodents. Each mouse was placed in the center of the maze facing Arm B. The first entry was excluded from data analysis because the animals were led to the initial arm entry by the experimenter. Using an overhead camera, the number of arm entries and alternations were recorded for 5 minutes. An arm entry is when all four paws enter into a new arm of the maze.
The apparatus was cleaned with 1% Virkon. Parameters recorded were % alternation and the total number of entries into arms. […]

[2] = tested on: C57Bl/6 mice; experiment: Activity chamber open field; type: in vivo, mouse; details: for Distance moved in the activity chamber vs vehicle: n = 6; for Distance moved in the activity chamber: chronic 10 mg/kg/day IP, after one week
Description: See Supplementary Methods for details. […]
Activity Chamber Open Field: Assessment was made in an Open Field Activity Arena (Med Associates Inc., St. Albans, VT. Model ENV-515) mounted with three planes of infrared detectors within a specially designed sound-attenuating chamber (Med Associates Inc., St.
Albans, VT. MED-017M-027). The arena was 43 cm (L) x 43 cm (W) x 30 cm (H) and the […]
in the periphery and center of the Arena. […]
without bedding, and in a sound isolating chamber. The activity chamber measures distance moved using infrared beams and without video recordings. […]
were used in the study. The animals were housed as described above.
The first dose was administered […]
described above for 30 min.

[3] = tested on: C57Bl/6 mice; experiment: Elevated plus maze; type: in vivo, mouse; details: chronic 10 mg/kg/day IP, week 1 of testing
Description: See Supplementary Methods for details.
Elevated Plus Maze: The maze was made of acrylonitrile butadiene styrene (ABS) plastic and had two open arms and two close arms that were 30 cm long and 5 cm wide. The center area where the open and close arms meet was 5 cm x 5 cm. The open arms had 2 mm lips at the edges, and the closed arms had 15 cm opaque walls. The maze was elevated 50 cm and surrounded by privacy blinds during the test. The maze was illuminated to 7 lux using red light throughout the test. Each mouse was released in the center of the maze and given 5 min to explore the maze. Duration and frequency in each zone of the maze were recorded using Ethovision (Noldus Information Technology, Wageningen, the Netherlands) tracking software. […]

[4] = tested on: C57Bl/6 mice; experiment: Chronic low dose exposure, mortality and body weight; details: 10 mg/kg/day IP for a month
Description: Behavioral tests were performed on 2 month-old, male, C57Bl/6 mice. We selected male mice because SBFNL historical controls are male mice. First, we assessed safety and tolerability of acute exposure to our novel chemicals through the following sequence of tests immediately following IP injection: maximum tolerated dose with novel cage observation at 100, 300, or 900 mg/kg, and then SHIRPA, activity chamber, and then hot plate latency using 100 or 30 mg/kg IP in different drug naïve mice. […] Animals were dosed daily from 3 to 5 PM after the conclusion of each behavioral testing session. […] See Supplementary Methods for details. […]
sound-attenuating chamber was 74 cm (L) x 60 cm (W) x 60 cm (H). The mice were placed in the corner of the testing arena and allowed to explore the arena for 60 min while being tracked automatically. Parameters measured include distance moved, velocity, rearing, and times spent in the periphery and center of the Arena. Periphery was defined as the zone 5 cm away from the arena wall. The Arena was cleaned with a 1% Virkon solution at the end of the trial.
The novel cage observation (vide supra) and activity chamber open field assessment are not […]
outcome. The novel cage protocol is conducted on the benchtop in a lighted room using a clean home cage, and tests habituation using video recording and scoring of behavioral performance.
Moreover, the novel cage allows the tester to visualize any other side effects such as seizure or repetitive jumping. The activity chamber is in an enclosed box, and the test is done in the dark, without bedding, and in a sound isolating chamber. The activity chamber measures distance moved using infrared beams and without video recordings.
In vivo animal studies; Chronic Efficacy Study using C57Bl/6J mice
Animal: Two month-old, naïve male C57Bl/6 mice from Jackson Laboratory (Stock ID# 000664) were used in the study. The animals were housed as described above.
Dosing: (R)-2MeGlu (10 mg/kg), (S)-2MeGlu (10 mg/kg), rac-2MeGln (10 mg/kg), and vehicle (PBS) were administered IP at 10 ml/kg dosing volume daily. […]

Row | Compound | Spontaneous alternation in the Y maze [1] | Distance moved in the activity chamber vs vehicle ([2]; acute 30 mg/kg IP) | Distance moved in the activity chamber vs vehicle ([2]; acute 100 mg/kg IP) | Distance moved in the activity chamber [2] | Time spent in the open arms in the elevated plus maze [3] | Body weight over the month [4]
1 | CC(N)(CCC(N)=O)C(=O)O (racemic) [rac-2MeGln, rac-2-methylglutamine] | no significant effect of treatment | modest but significant reduction in distance moved only at 11 min post injection | not significantly different from vehicle at any time point | no significant effect of treatment | no significant effect of treatment | no significant effect of treatment
2 | C[C@@](N)(CCC(=O)O)C(=O)O [(R)-2MeGlu, (R)-2-methylglutamic acid] | no significant effect of treatment | modest but significant reduction in distance moved only at 11 min post injection | significantly reduced | no significant effect of treatment | no significant effect of treatment | no significant effect of treatment
3 | C[C@](N)(CCC(=O)O)C(=O)O [(S)-2MeGlu, (S)-2-methylglutamic acid] | no significant effect of treatment | not significantly different | significantly reduced | no significant effect of treatment | no significant effect of treatment | no significant effect of treatment
